For 29 compounds, IC50 results are on record in patent US10793580B2, “Substituted pyrazoloazepin-8-ones and their use as phosphodiesterase inhibitors” (LEO Pharma A/S, priority 2016, dated 2020).

SMILES strings stand for the structures.

In one assay the target is human PDE4D catalytic domain (Homo sapiens (Human), UniProt Q08499). The assay can be described thus: PDE4 Assay (TR-FRET, FAM-cAMP cleavage). Format: biochemical. Particulars: Table 16, Examples 277-296; read-out: PDE4 IC50 range. A digest of the protocol: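 Readout is Tb-to-FAM time-resolved FRET after nanoparticle capture of AMP, the product of cleaving a cAMP/FAM-cAMP mixture by PDE4D catalytic domain (S380-L740) in the presence of titrated compound. Values are IC50 ranges in nM: concentration halving substrate cleavage relative to controls.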
Chain of human PDE4D catalytic domain (Q08499 380-740): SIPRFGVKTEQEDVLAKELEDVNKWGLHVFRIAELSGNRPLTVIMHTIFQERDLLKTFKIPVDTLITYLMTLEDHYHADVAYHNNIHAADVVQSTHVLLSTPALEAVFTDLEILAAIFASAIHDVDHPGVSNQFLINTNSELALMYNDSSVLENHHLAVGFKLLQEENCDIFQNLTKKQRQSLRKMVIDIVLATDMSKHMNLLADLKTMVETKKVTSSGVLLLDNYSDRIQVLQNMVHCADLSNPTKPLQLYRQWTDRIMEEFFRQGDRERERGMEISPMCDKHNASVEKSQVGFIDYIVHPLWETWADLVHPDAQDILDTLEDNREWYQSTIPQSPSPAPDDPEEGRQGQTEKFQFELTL
Turning to `CCn1nc(C[C@@H](C)COC(=O)c2cocn2)c2c1C(=O)NCC1(CCOCC1)C2` [Example 277, [(2R)-3-(1-ethyl-8-oxo-spiro[6,7-dihydro-4H-pyrazolo[3,4-c]azepine-5,4′-tetrahydropyran]-3-yl)-2-methyl-propyl] oxazole-4-carboxylate], the IC50 is < 100 nM.
The same measure, in the same setting: the figure for `CCn1nc(C[C@@H](C)COC(=O)c2ccn(C)n2)c2c1C(=O)NCC1(CCOCC1)C2` [Example 278, [(2R)-3-(1-ethyl-8-oxo-spiro[6,7-dihydro-4H-pyrazolo[3,4-c]azepine-5,4′-tetrahydropyran]-3-yl)-2-methyl-propyl] 1-methylpyrazole-3-carboxylate] is < 100 nM; for `CCn1nc(C[C@@H](C)COC(=O)c2cnn(C)c2)c2c1C(=O)NCC1(CCOCC1)C2` [Example 279, [(2R)-3-(1-ethyl-8-oxo-spiro[6,7-dihydro-4H-pyrazolo[3,4-c]azepine-5,4′-tetrahydropyran]-3-yl)-2-methyl-propyl] 1-methylpyrazole-4-carboxylate] it is < 100 nM; for `CCn1nc(C[C@@H](C)COC(=O)c2cn(C)cn2)c2c1C(=O)NCC1(CCOCC1)C2` [Example 280, [(2R)-3-(1-ethyl-8-oxo-spiro[6,7-dihydro-4H-pyrazolo[3,4-c]azepine-5,4′-tetrahydropyran]-3-yl)-2-methyl-propyl] 1-methylimidazole-4-carboxylate] it is < 100 nM.
For `CCn1nc(C[C@@H](C)COC(=O)c2coc(C)n2)c2c1C(=O)NCC1(CCOCC1)C2` [Example 281, [(2R)-3-(1-ethyl-8-oxo-spiro[6,7-dihydro-4H-pyrazolo[3,4-c]azepine-5,4′-tetrahydropyran]-3-yl)-2-methyl-propyl] 2-methyloxazole-4-carboxylate], the IC50 was < 100 nM.
Same read-out and setting: the figure for `CCn1nc(C[C@@H](C)COC(=O)c2cnc(C)o2)c2c1C(=O)NCC1(CCOCC1)C2` [Example 282, [(2R)-3-(1-ethyl-8-oxo-spiro[6,7-dihydro-4H-pyrazolo[3,4-c]azepine-5,4′-tetrahydropyran]-3-yl)-2-methyl-propyl] 2-methyloxazole-5-carboxylate] is < 100 nM; for `CCn1nc(C[C@@H](C)COC(=O)c2ccns2)c2c1C(=O)NCC1(CCOCC1)C2` [Example 283, [(2R)-3-(1-ethyl-8-oxo-spiro[6,7-dihydro-4H-pyrazolo[3,4-c]azepine-5,4′-tetrahydropyran]-3-yl)-2-methyl-propyl] isothiazole-5-carboxylate] it is < 100 nM; for `CCn1nc(C[C@@H](C)COC(=O)c2cnsc2)c2c1C(=O)NCC1(CCOCC1)C2` [Example 284, [(2R)-3-(1-ethyl-8-oxo-spiro[6,7-dihydro-4H-pyrazolo[3,4-c]azepine-5,4′-tetrahydropyran]-3-yl)-2-methyl-propyl] isothiazole-4-carboxylate] it is < 100 nM.
Still for that read-out and setting: for `CCn1nc(C[C@@H](C)COC(=O)c2cscn2)c2c1C(=O)NCC1(CCOCC1)C2` [Example 285, [(2R)-3-(1-ethyl-8-oxo-spiro[6,7-dihydro-4H-pyrazolo[3,4-c]azepine-5,4′-tetrahydropyran]-3-yl)-2-methyl-propyl] thiazole-4-carboxylate] the value was < 100 nM; for `CCn1nc(C[C@@H](C)COC(=O)c2cncs2)c2c1C(=O)NCC1(CCOCC1)C2` [Example 286, [(2R)-3-(1-ethyl-8-oxo-spiro[6,7-dihydro-4H-pyrazolo[3,4-c]azepine-5,4′-tetrahydropyran]-3-yl)-2-methyl-propyl] thiazole-5-carboxylate], < 100 nM.

The assay is the same for the next values; noted with them: human PDE4D catalytic domain (UniProt Q08499 [S380-L740]); 50% inhibition of substrate cleavage; read-out: PDE4 IC50 range.
Take `CCn1nc(CCCOC(=O)c2cc(C)nc(C)c2)c2c1C(=O)NCC1(CCOCC1)C2` [Example 258, 3-(1-ethyl-8-oxo-spiro[6,7-dihydro-4H-pyrazolo[3,4-c]azepine-5,4′-tetrahydro-pyran]-3-yl)propyl 2,6-dimethylpyridine-4-carboxylate]: the IC50 was < 100 nM.
Turning to `CCc1cc(C(=O)OCCCc2nn(CC)c3c2CC2(CCOCC2)CNC3=O)nn1C` [Example 259, 3-(1-ethyl-8-oxo-spiro[6,7-dihydro-4H-pyrazolo[3,4-c]azepine-5,4′-tetrahydro-pyran]-3-yl)propyl 5-ethyl-1-methyl-pyrazole-3-carboxylate], the IC50 is < 100 nM.
Turning to `CCc1nc(C(=O)OCCCc2nn(CC)c3c2CC2(CCOCC2)CNC3=O)cs1` [Example 260, 3-(1-ethyl-8-oxo-spiro[6,7-dihydro-4H-pyrazolo[3,4-c]azepine-5,4′-tetrahydropyran]-3-yl)propyl 2-ethylthiazole-4-carboxylate], the IC50 was < 100 nM.
On the same count and under the same terms, the figure for `CCn1nc(CCCOC(=O)C2CCN(C(C)=O)CC2)c2c1C(=O)NCC1(CCOCC1)C2` [Example 261, 3-(1-ethyl-8-oxo-spiro[6,7-dihydro-4H-pyrazolo[3,4-c]azepine-5,4′-tetrahydropyran]-3-yl)propyl 1-acetylpiperidine-4-carboxylate] is < 100 nM; for `CCn1nc(CCCOC(=O)C2CCS(=O)(=O)CC2)c2c1C(=O)NCC1(CCOCC1)C2` [Example 262, 3-(1-ethyl-8-oxo-spiro[6,7-dihydro-4H-pyrazolo[3,4-c]azepine-5,4′-tetrahydro-pyran]-3-yl)propyl 1,1-dioxothiane-4-carboxylate] it is < 100 nM; for `CCn1nc(CCCOC(=O)C2CCN(C(=O)OC)CC2)c2c1C(=O)NCC1(CCOCC1)C2` [Example 263, [3-(1-ethyl-8-oxo-spiro[6,7-dihydro-4H-pyrazolo[3,4-c]azepine-5,4′-tetrahydro-pyran]-3-yl)propyl] 1-methoxy-carbonylpiperidine-4-carboxylate] it is < 100 nM.
On the same count and under the same terms, for `CCn1nc(CCCOC(=O)C2CCN(C(=O)N(C)C)CC2)c2c1C(=O)NCC1(CCOCC1)C2` [Example 264, 3-(1-ethyl-8-oxo-spiro[6,7-dihydro-4H-pyrazolo[3,4-c]azepine-5,4′-tetrahydro-pyran]-3-yl)propyl 1-(dimethyl-carbamoyl)piperidine-4-carboxylate] the value was < 100 nM; for `CCn1nc(CCCCOC(=O)C2CCOC2)c2c1C(=O)NCC1(CCOCC1)C2` (centres unmarked) [Example 265, 4-(1-ethyl-8-oxo-spiro[6,7-dihydro-4H-pyrazolo[3,4-c]azepine-5,4′-tetrahydropyran]-3-yl)butyl tetrahydrofuran-3-carboxylate], < 100 nM; for `CCn1nc(CCCCOC(=O)c2coc(C)n2)c2c1C(=O)NCC1(CCOCC1)C2` [Example 266, 4-(1-ethyl-8-oxo-spiro[6,7-dihydro-4H-pyrazolo[3,4-c]azepine-5,4′-tetrahydropyran]-3-yl)butyl 2-methyloxazole-4-carboxylate], < 100 nM.
Take `CCn1nc(CCCCOC(=O)c2cnc(C)o2)c2c1C(=O)NCC1(CCOCC1)C2` [Example 267, 4-(1-ethyl-8-oxo-spiro[6,7-dihydro-4H-pyrazolo[3,4-c]azepine-5,4′-tetrahydropyran]-3-yl)butyl 2-methyloxazole-5-carboxylate]: the IC50 is < 100 nM.
On the same count and under the same terms, the figure for `CCn1nc(CCCCOC(=O)c2cnsc2)c2c1C(=O)NCC1(CCOCC1)C2` [Example 268, 4-(1-ethyl-8-oxo-spiro[6,7-dihydro-4H-pyrazolo[3,4-c]azepine-5,4′-tetrahydropyran]-3-yl)butyl isothiazole-4-carboxylate] is < 100 nM.
Still for that read-out and setting: for `CCn1nc(CCCCOC(=O)c2cscn2)c2c1C(=O)NCC1(CCOCC1)C2` [Example 269, 4-(1-ethyl-8-oxo-spiro[6,7-dihydro-4H-pyrazolo[3,4-c]azepine-5,4′-tetrahydropyran]-3-yl)butyl thiazole-4-carboxylate] the value was < 100 nM; for `CCn1nc(CCCCOC(=O)C2CCOCC2)c2c1C(=O)NCC1(CCOCC1)C2` [Example 270, 4-(1-ethyl-8-oxo-spiro[6,7-dihydro-4H-pyrazolo[3,4-c]azepine-5,4′-tetrahydropyran]-3-yl)butyl tetrahydropyran-4-carboxylate], < 100 nM; for `CCn1nc(CCCCOC(=O)c2cnc(C)nc2)c2c1C(=O)NCC1(CCOCC1)C2` [Example 271, 4-(1-ethyl-8-oxo-spiro[6,7-dihydro-4H-pyrazolo[3,4-c]azepine-5,4′-tetrahydropyran]-3-yl)butyl 2-methylpyrimidine-5-carboxylate], < 100 nM.
Still for that read-out and setting: for `CCn1nc(CCCCOC(=O)c2cc(C)n(C)n2)c2c1C(=O)NCC1(CCOCC1)C2` [Example 272, 4-(1-ethyl-8-oxo-spiro[6,7-dihydro-4H-pyrazolo[3,4-c]azepine-5,4′-tetrahydro-pyran]-3-yl)butyl 1,5-dimethylpyrazole-3-carboxylate] the value was < 100 nM.
Regarding `CCn1nc(CCCCOC(=O)c2cc(C)nc(C)c2)c2c1C(=O)NCC1(CCOCC1)C2` [Example 273, 4-(1-ethyl-8-oxo-spiro[6,7-dihydro-4H-pyrazolo[3,4-c]azepine-5,4′-tetrahydro-pyran]-3-yl)butyl 2,6-dimethylpyridine-4-carboxylate], the 50% inhibitory concentration (IC50) was < 100 nM.
On the same count and under the same terms, the figure for `CCn1nc(CCCCOC(=O)C2CCN(C(C)=O)CC2)c2c1C(=O)NCC1(CCOCC1)C2` [Example 274, 4-(1-ethyl-8-oxo-spiro[6,7-dihydro-4H-pyrazolo[3,4-c]azepine-5,4′-tetrahydropyran]-3-yl)butyl 1-acetylpiperidine-4-carboxylate] is < 100 nM; for `CCn1nc(CCOC(=O)c2cnsc2)c2c1C(=O)NCC1(CCOCC1)C2` [Example 275, 2-(1-ethyl-8-oxo-spiro[6,7-dihydro-4H-pyrazolo[3,4-c]azepine-5,4′-tetrahydropyran]-3-yl)ethyl isothiazole-4-carboxylate] it is < 100 nM.
The same measure, in the same setting: for `CCn1nc(CCOC(=O)C2CCOCC2)c2c1C(=O)NCC1(CCOCC1)C2` [Example 276, 2-(1-ethyl-8-oxo-spiro[6,7-dihydro-4H-pyrazolo[3,4-c]azepine-5,4′-tetrahydropyran]-3-yl)ethyl tetrahydropyran-4-carboxylate] the value was 100 to 500 nM.
